From ChEMBL document CHEMBL4665642, “Anticancer profile of newly synthesized BRAF inhibitors possess 5-(pyrimidin-4-yl)imidazo[2,1-b]thiazole scaffold” (Bioorg Med Chem, 2019)

Legend:
Assay type in all cases: functional
Conditions in all cases: read-out: Activity
T47D = assay: Cytotoxicity against human T47D cells assessed as cell viability at 10 uM incubated for 48 hrs by sulforhodamine B assay relative to control
MCF7 = assay: Cytotoxicity against human MCF7 cells assessed as cell viability at 10 uM incubated for 48 hrs by sulforhodamine B assay relative to control
UO-31 = assay: Cytotoxicity against human UO-31 cells assessed as cell viability at 10 uM incubated for 48 hrs by sulforhodamine B assay relative to control
RXF 393 = assay: Cytotoxicity against human RXF 393 cells assessed as cell viability at 10 uM incubated for 48 hrs by sulforhodamine B assay relative to control
CAKI-1 = assay: Cytotoxicity against human CAKI-1 cells assessed as cell viability at 10 uM incubated for 48 hrs by sulforhodamine B assay relative to control
SK-OV-3 = assay: Cytotoxicity against human SK-OV-3 cells assessed as cell viability at 10 uM incubated for 48 hrs by sulforhodamine B assay relative to control
UACC-257 = assay: Cytotoxicity against human UACC-257 cells assessed as cell viability at 10 uM incubated for 48 hrs by sulforhodamine B assay relative to control
SK-MEL-5 = assay: Cytotoxicity against human SK-MEL-5 cells assessed as cell viability at 10 uM incubated for 48 hrs by sulforhodamine B assay relative to control
SK-MEL-2 = assay: Cytotoxicity against human SK-MEL-2 cells assessed as cell viability at 10 uM incubated for 48 hrs by sulforhodamine B assay relative to control
Malme-3M = assay: Cytotoxicity against human Malme-3M cells assessed as cell viability at 10 uM incubated for 48 hrs by sulforhodamine B assay relative to control
NCI-H322M = assay: Cytotoxicity against human NCI-H322M cells assessed as cell viability at 10 uM incubated for 48 hrs by sulforhodamine B assay relative to control
HCC 2998 = assay: Cytotoxicity against human HCC 2998 cells assessed as cell viability at 10 uM incubated for 48 hrs by sulforhodamine B assay relative to control
HCT-116 = assay: Cytotoxicity against human HCT-116 cells assessed as cell viability at 10 uM incubated for 48 hrs by sulforhodamine B assay relative to control
HCT-15 = assay: Cytotoxicity against human HCT-15 cells assessed as cell viability at 10 uM incubated for 48 hrs by sulforhodamine B assay relative to control
HCT-29 = assay: Cytotoxicity against human […] cells assessed as cell viability at 10 uM incubated for 48 hrs by sulforhodamine B assay relative to control
SF-295 = assay: Cytotoxicity against human SF-295 cells assessed as cell viability at 10 uM incubated for 48 hrs by sulforhodamine B assay relative to control
SF-539 = assay: Cytotoxicity against human SF-539 cells assessed as cell viability at 10 uM incubated for 48 hrs by sulforhodamine B assay relative to control
LOX IMVI = assay: Cytotoxicity against human LOX IMVI cells assessed as cell viability at 10 uM incubated for 48 hrs by sulforhodamine B assay relative to control

| Structure (SMILES) | viability at 10 µM (T47D) | viability at 10 µM (MCF7) | viability at 10 µM (UO-31) | viability at 10 µM (RXF 393) | viability at 10 µM (CAKI-1) | viability at 10 µM (SK-OV-3) | viability at 10 µM (UACC-257) | viability at 10 µM (SK-MEL-5) | viability at 10 µM (SK-MEL-2) | viability at 10 µM (Malme-3M) | viability at 10 µM (NCI-H322M) | viability at 10 µM (HCC 2998) | viability at 10 µM (HCT-116) | viability at 10 µM (HCT-15) | viability at 10 µM (HCT-29) | viability at 10 µM (SF-295) | viability at 10 µM (SF-539) | viability at 10 µM (LOX IMVI) |
| --- | --- | --- | --- | --- | --- | --- | --- | --- | --- | --- | --- | --- | --- | --- | --- | --- | --- | --- |
| O=C(NCCNc1nccc(-c2c(-c3cccc(F)c3)nc3sccn23)n1)C1CCCCC1 | 30.2% | 82% | 40.3% | 78.2% | 70.4% | 50.1% | 113% | 59.6% | 60.1% | 130% | 104% | 104% | 51.9% | 61% | 43.6% | 93.6% | 84.9% | 65.9% |
| O=S(=O)(NCCCNc1nccc(-c2c(-c3cccc(F)c3)nc3sccn23)n1)c1ccc(O)cc1 | 48.8% | 32.2% | 31.3% | 84% | 51.9% | 86.4% | 104% | 57% | 81.3% | 107% | 79.2% | 100% | 60% | 43.5% | 41.8% | 92% | 99.3% | 61.2% |
| O=S(=O)(NCCNc1nccc(-c2c(-c3cccc(F)c3)nc3sccn23)n1)c1cccc2ccccc12 | 81.7% | 74.6% | 59.2% | 102% | 77.5% | 98.5% | 107% | 88.3% | 104% | 118% | 104% | 131% | 84.6% | 83.6% | 83.2% | 106% | 109% | 95.7% |
| O=S(=O)(NCCCNc1nccc(-c2c(-c3cccc(F)c3)nc3sccn23)n1)c1cccc2ccccc12 | 18.4% | 37.4% | 20% | 62.9% | 29.1% | 65.8% | 72.8% | 31.8% | 47.8% | 78.7% | 81.6% | 16.3% | 32.4% | 18.1% | 1.97% | 34.6% | 72.8% | 20.9% |
| O=C(NCCCNc1nccc(-c2c(-c3cccc(F)c3)nc3sccn23)n1)c1ccc(C(F)(F)F)cc1 | 62.6% | 69.7% | 35.3% | 74.6% | 62.5% | 69% | 106% | 75.3% | 98.8% | 121% | 90.3% | 112% | 66.7% | 54.2% | 53.8% | 87.5% | 104% | 82.6% |
| O=C(NCCCNc1nccc(-c2c(-c3cccc(F)c3)nc3sccn23)n1)C1CCCCC1 | 37.8% | 36.5% | 41% | 94.3% | 55.7% | 87.7% | 95.2% | 52.9% | 78.4% | 74.7% | 86% | 90.5% | 49.3% | 58% | 40.1% | 89.8% | 100% | 57.4% |
